Assay results reported in patent US11345666B2, “Phenyl and pyridinyl substituted imidazoles as modulators of RORγT” (Janssen Pharmaceutica NV, priority 2018, dated 2022).
Where two headings read alike, the source gives them in different places. Marks after values point to notes of the source that are not given here.

Tests used:
[1] = molecular target: human RORγt ligand binding domain (RORγt LBD) (Homo sapiens (Human), UniProt P51449); assay: RORγt ThermoFluor assay
Method in brief: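 Thermal shift of His-tagged human RORγt LBD (0.065 mg/mL) with 60 μM 1,8-ANS in 100 mM Hepes pH 7.0, 10 mM NaCl, 2.5 mM GSH, 0.002% Tween-20, heated at 1° C./min. Compounds in 1:2 series from a 10 mM DMSO stock; KD estimated from ΔTm using protein unfolding thermodynamics.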

full-length human RORγt = full-length human RORγt (Homo sapiens (Human), UniProt P51449); assay: RORγt (full-length human) reporter assay, conditions A or B; type: cell-based; settings: for IC50: HEK293T cells, read-out: RORγt (FL) Reporter Assay A or B, IC50; for inhibition at 6 µM: read-out: RORγt (FL) Reporter Assay A or B, % inhibition @ 6 μM, 6 μM compound concentration
Sequence of full-length human RORγt (P51449 other isoform, or with tags, fused parts or gaps): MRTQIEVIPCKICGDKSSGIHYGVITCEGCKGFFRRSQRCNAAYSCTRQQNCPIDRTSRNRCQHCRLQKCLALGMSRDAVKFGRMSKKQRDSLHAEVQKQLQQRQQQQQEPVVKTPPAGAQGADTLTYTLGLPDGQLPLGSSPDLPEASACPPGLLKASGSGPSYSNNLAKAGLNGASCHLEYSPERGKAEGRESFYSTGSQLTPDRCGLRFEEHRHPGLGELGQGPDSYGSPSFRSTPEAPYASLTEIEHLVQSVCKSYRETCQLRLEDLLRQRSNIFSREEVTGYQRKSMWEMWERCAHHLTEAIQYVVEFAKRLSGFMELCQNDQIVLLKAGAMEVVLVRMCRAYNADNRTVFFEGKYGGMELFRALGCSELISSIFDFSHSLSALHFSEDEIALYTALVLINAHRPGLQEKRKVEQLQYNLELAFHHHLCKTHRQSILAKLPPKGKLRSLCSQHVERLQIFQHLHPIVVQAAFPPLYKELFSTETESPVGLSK
Method in brief: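 HEK293T cells transiently co-transfected (PEI) with GAL4-DBD–RORγt, GAL4-firefly luciferase and CMV-Renilla reporters; condition A 35,000 cells/well, 170.5 ng DNA/well; condition B 8750 cells/well, 42.6 ng DNA/well.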

[2] = 2 μM compound concentration (**), read-out: RORγt (FL) Reporter Assay A or B, % inhibition
[3] = 0.67 μM compound concentration (****), read-out: RORγt (FL) Reporter Assay A or B, % inhibition

Sequence of human RORγt ligand binding domain (RORγt LBD) (P51449 other isoform, or with tags, fused parts or gaps): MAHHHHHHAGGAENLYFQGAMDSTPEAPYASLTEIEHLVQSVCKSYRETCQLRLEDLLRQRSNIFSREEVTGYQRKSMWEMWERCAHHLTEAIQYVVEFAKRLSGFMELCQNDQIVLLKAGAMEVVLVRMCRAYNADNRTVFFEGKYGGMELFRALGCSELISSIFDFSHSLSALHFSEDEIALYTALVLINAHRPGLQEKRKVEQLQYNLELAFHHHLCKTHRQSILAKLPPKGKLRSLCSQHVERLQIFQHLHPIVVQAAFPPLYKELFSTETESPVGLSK

Row | Kd [1] [nM] | inhibition at 2 µM (full-length human RORγt; [2]) [%] | IC50 (full-length human RORγt) [nM] | SMILES | further results
1 | 1.9 | 89 | 17 | CCc1nc(C(=O)NC[C@]2(O)CC[C@@H](S(C)(=O)=O)CC2)c(C(N)=O)n1-c1ccc(CC(C)(C)C(F)(F)F)cc1OC(F)(F)F [Example 112, 2-Ethyl-N^4-(((1s,4s)-1-hydroxy-4-(methylsulfonyl)cyclohexyl)methyl)-1-(4-(3,3,3-trifluoro-2,2-dimethylpropyl)-2-(trifluoromethoxy)phenyl)-1H-imidazole-4,5-dicarboxamide] | 
2 | 1 |  | 39 | CCCc1nc(C(=O)NC[C@H]2CC[C@H](S(C)(=O)=O)CC2)c(Cl)n1-c1ccc(N[C@H](C)C(F)(F)F)cc1OC [Example 11, 5-Chloro-1-(2-methoxy-4-(((R)-1,1,1-trifluoropropan-2-yl)amino)phenyl)-N-(((1r,4R)-4-(methylsulfonyl)cyclohexyl)methyl)-2-propyl-1H-imidazole-4-carboxamide] | inhibition at 6 µM (full-length human RORγt): 102%
3 | 8.3 |  | 59 | CCc1cc(CC(C)(C)C(F)(F)F)cnc1-n1c(CC)nc(C(=O)NC[C@H]2CC[C@H](S(C)(=O)=O)CC2)c1Cl [Example 75, 5-Chloro-2-ethyl-1-(3-ethyl-5-(3,3,3-trifluoro-2,2-dimethylpropyl)pyridin-2-yl)-N-(((1r,4r)-4-(methylsulfonyl)cyclohexyl)methyl)-1H-imidazole-4-carboxamide] | inhibition at 3 µM (full-length human RORγt; 3 μM compound concentration (*), read-out: RORγt (FL) Reporter Assay A or B, % inhibition): 110%
4 | 5.3 |  | 33 | CCc1nc(C(=O)NC[C@]2(O)CC[C@@H](S(C)(=O)=O)CC2)c(C#N)n1-c1ccc(CC(C)(C)C(F)(F)F)cc1OC(F)F [Example 24, 5-Cyano-1-(2-(difluoromethoxy)-4-(3,3,3-trifluoro-2,2-dimethylpropyl)phenyl)-2-ethyl-N-(((1s,4s)-1-hydroxy-4-(methylsulfonyl)cyclohexyl)methyl)-1H-imidazole-4-carboxamide] | inhibition at 6 µM (full-length human RORγt): 104%
5 | 300 |  | 1700 | CCc1nc(C(=O)NC[C@]2(C#N)CC[C@@H](S(C)(=O)=O)CC2)c(C#N)n1-c1ncc(CCC(F)(F)F)cc1OC [Example 121, 5-Cyano-N-(((1s*,4s*)-1-cyano-4-(methylsulfonyl)cyclohexyl)methyl)-2-ethyl-1-(3-methoxy-5-(3,3,3-trifluoropropyl)pyridin-2-yl)-1H-imidazole-4-carboxamide] | inhibition at 6 µM (full-length human RORγt): 76%
6 | 250 | 47 | 490 | CCc1nc(C(=O)NC[C@H]2CC[C@H](S(C)(=O)=O)CC2)c(C(N)=O)n1-c1ccc(CCC(F)(F)F)cc1F [Example 94, 2-Ethyl-1-(2-fluoro-4-(3,3,3-trifluoropropyl)phenyl)-N^4-(((1r,4r)-4-(methylsulfonyl)cyclohexyl)methyl)-1H-imidazole-4,5-dicarboxamide] | 
7 | 21 | 94 | 170 | CCc1nc(C(=O)NC[C@H]2CC[C@H](S(C)(=O)=O)CC2)cn1-c1ccc(C[C@H](C)C(F)(F)F)cc1OC (single isomer, unassigned) [Example 20, 2-Ethyl-1-(2-methoxy-4-((S*)-3,3,3-trifluoro-2-methylpropyl)phenyl)-N-(((1r,4S)-4-(methylsulfonyl)cyclohexyl)methyl)-1H-imidazole-4-carboxamide] | 
8 | 4.4 |  | 19 | CCc1nc(C(=O)NC[C@]2(C#N)CC[C@@H](S(C)(=O)=O)CC2)c(F)n1-c1ccc(CC(C)(C)C(F)(F)F)cc1OC(F)F [Example 38, N-(((1s*,4s*)-1-Cyano-4-(methylsulfonyl)cyclohexyl)methyl)-1-(2-(difluoromethoxy)-4-(3,3,3-trifluoro-2,2-dimethylpropyl)phenyl)-2-ethyl-5-fluoro-1H-imidazole-4-carboxamide] | inhibition at 0.67 µM (full-length human RORγt; [3]): 97%
9 | 11 |  | 28 | CCc1nc(C(=O)NC[C@]2(O)CC[C@@H](S(C)(=O)=O)CC2)c(F)n1-c1ccc(CC(C)(C)C(F)(F)F)cc1OC(F)F [Example 35, 1-(2-(Difluoromethoxy)-4-(3,3,3-trifluoro-2,2-dimethylpropyl)phenyl)-2-ethyl-5-fluoro-N-(((1s,4s)-1-hydroxy-4-(methylsulfonyl)cyclohexyl)methyl)-1H-imidazole-4-carboxamide] | inhibition at 6 µM (full-length human RORγt): 97%
10 | 17 |  | 46 | CCc1nc(C(=O)NC[C@]2(O)CC[C@@H](S(C)(=O)=O)CC2)c(Cl)n1-c1c(F)cc(CC(C)C(F)(F)F)cc1F (stereo partly drawn) [Example 88, 5-Chloro-1-(2,6-difluoro-4-(3,3,3-trifluoro-2-methylpropyl)phenyl)-2-ethyl-N-(((1s,4s)-1-hydroxy-4-(methylsulfonyl)cyclohexyl)methyl)-1H-imidazole-4-carboxamide] | inhibition at 0.67 µM (full-length human RORγt; [3]): 67%
11 | 1.8 | 99 | 11 | CCc1nc(C(=O)NC[C@H]2CC[C@H](S(C)(=O)=O)CC2)c(Cl)n1-c1ncc(CC(C)(C)C(F)(F)F)cc1OC [Example 125, 5-Chloro-2-ethyl-1-(3-methoxy-5-(3,3,3-trifluoro-2,2-dimethylpropyl)pyridin-2-yl)-N-(((1r,4r)-4-(methylsulfonyl)cyclohexyl)methyl)-1H-imidazole-4-carboxamide] | 

Row | SMILES | Kd [1] [nM] | inhibition at 2 µM (full-length human RORγt; [2]) [%] | IC50 (full-length human RORγt) [nM] | further results
12 | CCc1nc(C(=O)NC[C@]2(C#N)CC[C@@H](S(C)(=O)=O)CC2)c(C#N)n1-c1ccc(CC(C)(C)C(F)(F)F)cc1OC(F)F [Example 37, 5-Cyano-N-(((1s*,4s*)-1-cyano-4-(methylsulfonyl)cyclohexyl)methyl)-1-(2-(difluoromethoxy)-4-(3,3,3-trifluoro-2,2-dimethylpropyl)phenyl)-2-ethyl-1H-imidazole-4-carboxamide] | 0.87 |  | 5.3 | RORγt (FL) Reporter Assay A or B, % inhibition (full-length human RORγt; 0.67 μM compound concentration (****)): 105**** %
13 | CCc1nc(C(=O)NC[C@]2(O)CC[C@@H](S(C)(=O)=O)CC2)c(Cl)n1-c1ccc(CC(C)C)cc1OC [Example 90, 5-Chloro-2-ethyl-N-(((1s,4s)-1-hydroxy-4-(methylsulfonyl)cyclohexyl)methyl)-1-(4-isobutyl-2-methoxyphenyl)-1H-imidazole-4-carboxamide] | 0.31 | 67 | 21 | 
14 | CCc1nc(C(=O)NC[C@H]2CC[C@H](S(C)(=O)=O)CC2)c(Cl)n1-c1c(F)cc(C[C@@H](C)C(F)(F)F)cc1F (single isomer, unassigned) [Example 87, 5-Chloro-1-(2,6-difluoro-4-((R*)-3,3,3-trifluoro-2-methylpropyl)phenyl)-2-ethyl-N-(((1r,4R)-4-(methylsulfonyl)cyclohexyl)methyl)-1H-imidazole-4-carboxamide] | 3.8 |  | 18 | inhibition at 0.67 µM (full-length human RORγt; read-out: RORγt (FL) Reporter Assay A or B, % inhibition, 0.67 μM compound concentration (****)): 66%
15 | CCc1nc(C(=O)NC[C@]2(O)CC[C@@H](S(C)(=O)=O)CC2)c(Cl)n1-c1ccc(CC(C)C)cc1OC (single isomer, unassigned) [Example 91, 5-Chloro-2-ethyl-N-(((1s,4S)-1-hydroxy-4-(methylsulfonyl)cyclohexyl)methyl)-1-((S*)-4-isobutyl-2-methoxyphenyl)-1H-imidazole-4-carboxamide] | 620 |  | 360 | inhibition at 2 µM (full-length human RORγt; read-out: RORγt (FL) Reporter Assay A or B, % inhibition, 2 μM compound concentration (**)): 42%
